Test results published in patent publication US12509463B2, “JAK inhibitor and preparation method therefor” (FELICAMED BIOTECHNOLOGY CO., LTD., priority 2019, dated 2025).

Experiments:
[1] = test system: Canine PBMC cells; experiment: IL-2 and ConA induced proliferation of canine PBMC cells (flow cytometry, CD4+ population); type: cell-based; conditions: Canis lupus familiaris, CFSE stained, IL-2 and concanavalin A, 120 h, MFI of CD4+ population, read-out: Cell IC50
Description: Recombinant canine IL-2 (Cys147Ser) protein was purchased from R&D (Cat #1815-CL-020/CF). Canine CD4 Alexa Fluor 647-conjugated antibody was purchased from R&D […] A from Canavalia ensiformis (Jack bean) was purchased from Sigma (Cat #C5275-5MG). Oclacitinib maleate was purchased from AbMole Bioscience (Cat #M5827). PBMC cells were purchased from AllCells (Cat #DPB-002).
Flow cytometry is a technology used for detecting and measuring physical and chemical characteristics of populations of cells or particles. Canine PBMC was collected and stained with CFSE, and then the cells (1×10*5 cells/well) were inoculated onto a 96-well plate and incubated for 1 h in a 5% CO2 incubator at 37° C. […] Afterwards, cells were collected and stained with canine CD4 Alexa Fluor 647-conjugated antibodies.
Samples containing cells were resuspended by a staining buffer and injected into a flow cytometry. […] When cells passed through laser beam, a detector detected the scattered light of the cells or particles. The front detector detected forward scatter (FS), multiple detectors placed on the side detected side scatter (SS); and a fluorescence detector detected fluorescence emitted by the stained cells or particles. […]
CD4^+ was circled from lymphocyte populations. MFI of the CD4^+ population was calculated. […]

[2] = target: T1, JAK1 (Homo sapiens, UniProt P23458); experiment: JAK1 enzymology experiment (HTRF KinEASE-TK); type: biochemical; conditions: JAK1 enzyme activity, 10 uM ATP, 19.76 nM JAk1, 30 min at 25° C., HTRF 665/615; read-out: Relative IC50
T1 construct: purchased Thermo PV4774
Description: JAK1 is a protein tyrosine kinase, and purchased from Thermo (Cat #PV4774). ATP was purchased from Thermo […] was purchased from Selleck (Cat #55001), and HTRF KinEASE-TK kit was purchased from Cisbio (Cat #62TKOPEC).
HTRF®KinEASE™-TK was a universal method to measure activity of tyrosine kinase by a substrate and a universal detection system. The reaction was performed in a 384-well plate (Greiner, Cat #784075), and the total reaction system was 20 ul. The reaction system mainly included a 1× kinase buffer solution, 5 mM MgCl2, 0.625 mM EGTA, 0.06 uM SEB, 1 mM DTT, 0.01% Brij-35, 1 uM TK-Sub-biotin and 10 uM ATP. The compounds prepared in Examples 1-8 and the control compound Oclacitinib were continuously diluted by DMSO to 10 concentration points, and then 100 nl was transferred to a test plate. After 19.76 nM JAk1 was added, the reaction started, 30 min after reaction at 25° C., a detection reagent was added to terminate the reaction (0.25×TK Antibody, 62.5 nM Streptavidin-XL665). After standing for 60 min at room temperature, FRET signal was read out on a Spark 10M or an envision plate reader. (HTRF 665/615=665 nm signal value/615 nm signal value).
665/615 signal ratio was converted to percentage inhibition. […]

[3] = test system: pruritus caused by atopic dermatitis; conditions: dogs, cited from earlier work

T1 sequence (P23458 866-1154 limits assumed): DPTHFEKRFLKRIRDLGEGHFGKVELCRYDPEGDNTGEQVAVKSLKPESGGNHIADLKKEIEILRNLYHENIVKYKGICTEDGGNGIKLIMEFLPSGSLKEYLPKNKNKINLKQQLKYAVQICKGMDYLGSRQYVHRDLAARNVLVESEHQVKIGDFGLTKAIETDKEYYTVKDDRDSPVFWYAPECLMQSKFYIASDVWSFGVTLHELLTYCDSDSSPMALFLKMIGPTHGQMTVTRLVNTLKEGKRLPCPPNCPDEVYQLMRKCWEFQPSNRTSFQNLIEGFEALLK

SMILES: CNS(=O)(=O)C[C@H]1CC[C@H](N(C)c2ncnc3[nH]ccc23)CC1 [Oclacitinib]
- IC50 [1]: 447 nM
- IC50 [2]: 12.9 nM
- laboratory animals with more than 50% pruritus reaction relieved ([3]; on the 7th day of treatment): exceeding 70%
- time to relieve itching ([3]; oral 0.4-0.6 mg/kg twice a day): ≤ 24 h
- treatment of pruritus caused by atopic dermatitis ([3]; oral 0.4-0.6 mg/kg twice a day): safe and effective
